From patent publication US20100311803A1, “METHOD FOR REDUCING INFLAMMATORY RESPONSES AND INFLAMMATION” (Adelaide Research & Innovation Pty Ltd, priority 2006, published 2010)

Assays:
[1] = Functional outcome and recovery after trauma or trauma plus hypoxia and hypotension; assay type: in vivo, rat; settings: either trauma, or trauma plus hypoxia and hypotension
Protocol: A whole variety of severe insults are capable of triggering a systemic inflammatory response, and subsequent shock reaction. Two approaches were used in these studies, namely trauma (diffuse axonal injury), and an extended period of hypoxia and hypotension. N-acetyl-L-tryptophan was administered intravenously 30 minutes after the insult, whilst control animals received drug vehicle alone. […] This level of recovery was never seen in the non-treated animals.

[2] = tested on: IL-1β mRNA; assay: IL-1β mRNA expression in brain tissue after brain injury (RT-PCR); assay type: in vivo, rat; settings: 10^−5 mol/kg i.v. 30 minutes after injury; brain tissue at 6 hours after injury; normalised to rpL32 (FIG. 2)
Protocol: (§1) In order to examine the effects on the cellular inflammatory response, N-acetyl-L-tryptophan was administered intravenously at a dose of 10^−5 mol/kg after injury. The expression of mRNA for the inflammatory cytokines IL-1β, IL-6 and TNFα in brain tissue was determined by reverse transcription followed by a polymerase chain reaction (RT-PCR). mRNA levels were normalised with respect to expression of rpL32. Brain tissue samples were collected at 6 hours after injury. Levels of expression of mRNA for the inflammatory cytokines were compared in non-injured animals (sham), injured animals administered drug vehicle alone (control), and injured animals administered a substance P receptor antagonist (NK1). mRNA expression was determined for IL-1β (FIG. 2), IL-6 (FIG. 3) and TNFα (FIG. 4).

[3] = tested on: TNFα mRNA; assay: TNFα mRNA expression in brain tissue after brain injury (RT-PCR); assay type: in vivo, rat; settings: 10^−5 mol/kg i.v. 30 minutes after injury; brain tissue at 6 hours after injury; normalised to rpL32 (FIG. 4)
Protocol: as §1

[4] = Functional outcome and mortality of brain-injured animals; assay type: in vivo, rat; settings: brain injury; administered after injury
Protocol: (§2) We chose to use the compound N-acetyl-L-tryptophan. To induce a primary brain injury a rat model of diffuse axonal injury was used (Heath D L and Vink R (1997). Magnesium sulphate improves neurologic outcome following severe closed head injury in rats. Neurosci Lett; 228: 175-8). N-acetyl-L-tryptophan was then administered intravenously 30 minutes after injury, whilst control animals received drug vehicle alone.
In order to examine the effects on the cellular inflammatory response, N-acetyl-L-tryptophan was administered intravenously at a dose of 10^−5 mol/kg after injury.

[5] = tested on: IL-6 mRNA; assay: IL-6 mRNA expression in brain tissue after brain injury (RT-PCR); assay type: in vivo, rat; settings: 10^−5 mol/kg i.v. 30 minutes after injury; brain tissue at 6 hours after injury; normalised to rpL32 (FIG. 3)
Protocol: as §1

[6] = Evan's blue leakage into brain tissue (blood brain barrier) after diffuse axonal brain injury; assay type: in vivo; settings: rat diffuse axonal injury
Protocol: as §2

[7] = tested on: serum interleukin 6; assay: Serum IL-6 levels (ELISA) after systemic insult (trauma; trauma plus hypoxia and hypotension); assay type: in vivo, rat; settings: 10^−5 mol/kg i.v. 30 minutes after the insult
Protocol: A whole variety of severe insults are capable of triggering a systemic inflammatory response, and subsequent shock reaction. Two approaches were used in these studies, namely trauma (diffuse axonal injury), and an extended period of hypoxia and hypotension. N-acetyl-L-tryptophan was administered intravenously 30 minutes after the insult, whilst control animals received drug vehicle alone. A systemic inflammatory response, generated as a result of these triggers, was determined by a rise in serum interleukin 6 levels. Blood samples were collected at 6 hours after the insult. Changes in serum IL-6 levels were quantified using an enzyme-linked immunosorbent assay (ELISA). In order to examine the effects of an NK1 antagonist on the systemic inflammatory response, N-acetyl-L-tryptophan was administered intravenously at a dose of 10^−5 mol/kg 30 minutes after the insult. Serum levels of IL-6 were compared between animals that were not subject to any insult (sham), animals subject to an insult and then administered drug vehicle alone (control), and animals subject to an insult and administered a substance P receptor antagonist (NK1). IL-6 levels were determined following trauma (FIG. 5), and trauma followed by 15 minutes of hypoxia and hypotension (FIG. 6).

CC(=O)N[C@@H](Cc1c[nH]c2ccccc12)C(=O)O [N-acetyl-L-tryptophan]
time to normal physiological (spontaneous breathing) and behavioural (feeding and grooming) responses after treatment [1]: ≤ 60 minutes
functional outcome of the animals ([1]; i.v. 30 minutes after the insult): significantly improved
expression of IL-1β mRNA in brain tissue with respect to non-injured animals [2]: no significant differences
expression of TNFα mRNA in brain tissue with respect to non-injured animals [3]: no significant differences
functional outcome of the injured animals (motor, cognitive and behavioural outcomes) [4]: significantly improved
mortality [4]: significant reduction
expression of IL-6 mRNA in brain tissue with respect to non-injured animals [5]: no significant differences
closure of the blood-brain barrier, dependence on dose ([6]; intravenously 30 minutes after injury (FIG. 1)): dose-dependent manner
leakage of Evan's blue dye into the brain tissue (closure of the blood brain barrier) ([6]; intravenously 30 minutes after injury, vs vehicle control (FIG. 1)): reduced leakage
serum IL-6 levels with respect to sham animals ([7]; trauma (diffuse axonal injury), blood at 6 hours (FIG. 5)): no significant differences
serum IL-6 levels with respect to sham animals ([7]; trauma followed by 15 minutes of hypoxia and hypotension, blood at 6 hours (FIG. 6)): no significant differences
